From ChEMBL document CHEMBL1201862, “PubChem BioAssay data set” (2004)
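Each compound was tested at five concentrations against cells in 96-well plates for 48 hours. Abbreviation: GI50, concentration required for 50% inhibition of growth.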 The source made the active and inactive calls. No stated cut-off is given here; in the data, active = GI50 up to about 1.1 µM and inactive = higher.

How the values were obtained:
Test in all cases: NCI tumour cell line growth inhibition, 48 h
[1] = test system: A549
[2] = test system: M19-MEL
[3] = test system: OVCAR-3
[4] = test system: OVCAR-4
[5] = test system: NCI-H23
[6] = test system: SK-MEL-2
[7] = test system: A498
[8] = test system: KM12
[9] = test system: LXFL 529
[10] = test system: KM-20L2
[11] = test system: RPMI-8226
[12] = test system: UACC-257
[13] = test system: EKVX
[14] = test system: SK-MEL-5
[15] = test system: IGROV-1
[16] = test system: UO-31
[17] = test system: COLO 205
[18] = test system: SNB-75
[19] = test system: CAKI-1
[20] = test system: Malme-3M
[21] = test system: UACC-62
[22] = test system: SW-620
[23] = test system: OVCAR-5
[24] = test system: 786-0
[25] = test system: HCC 2998
[26] = test system: K562
[27] = test system: MOLT-4
[28] = test system: HT-29
[29] = test system: OVCAR-8
[30] = test system: TK-10
[31] = test system: HOP-18
[32] = test system: SF-539
[33] = test system: SNB-78
[34] = test system: SK-OV-3
[35] = test system: CCRF-CEM
[36] = test system: SR
[37] = test system: HCT-15
[38] = test system: U-251
[39] = test system: NCI-H460
[40] = test system: SF-268
[41] = test system: DMS-273
[42] = test system: HOP-92
[43] = test system: M14
[44] = test system: HCT-116
[45] = test system: SK-MEL-28
[46] = test system: LOX IMVI
[47] = test system: HL-60
[48] = test system: HOP-62
[49] = test system: DLD-1
[50] = test system: ACHN
[51] = test system: NCI-H226
[52] = test system: SF-295
[53] = test system: SN12C
[54] = test system: SNB-19
[55] = test system: RXF 393
[56] = test system: DMS-114
[57] = test system: NCI-H522

## Cc1cccc(C)c1N1C(=O)C(=O)C(c2nc3ccccc3s2)/C(=N/c2cccc3c(=O)[nH][nH]c(=O)c23)C1=O (stereo unspecified)
[1]
  GI50: > 100 µM (inactive)
[2]
  GI50: > 100 µM (inactive)
[3]
  GI50: > 100 µM (inactive)
[4]
  GI50: 79.3 µM (inactive)
[5]
  GI50: > 100 µM (inactive)
[6]
  GI50: > 100 µM (inactive)
[7]
  GI50: > 100 µM (inactive)
[8]
  GI50: > 100 µM (inactive)
[9]
  GI50: > 100 µM (inactive)
[10]
  GI50: > 100 µM (inactive)
[11]
  GI50: > 100 µM (inactive)
[12]
  GI50: > 100 µM (inactive)
[13]
  GI50: > 100 µM (inactive)
[14]
  GI50: > 100 µM (inactive)
[15]
  GI50: > 100 µM (inactive)
[16]
  GI50: > 100 µM (inactive)
[17]
  GI50: 41.5 µM (inactive)
[18]
  GI50: 81.8 µM (inactive)
[19]
  GI50: > 100 µM (inactive)
[20]
  GI50: > 100 µM (inactive)
[21]
  GI50: > 100 µM (inactive)
[22]
  GI50: > 100 µM (inactive)
[23]
  GI50: > 100 µM (inactive)
[24]
  GI50: > 100 µM (inactive)
[25]
  GI50: > 100 µM (inactive)
[26]
  GI50: 98.4 µM (inactive)
[27]
  GI50: 66.5 µM (inactive)
[28]
  GI50: > 100 µM (inactive)
[29]
  GI50: > 100 µM (inactive)
[30]
  GI50: > 100 µM (inactive)
[31]
  GI50: > 100 µM (inactive)
[32]
  GI50: > 100 µM (inactive)
[33]
  GI50: > 100 µM (inactive)
[34]
  GI50: > 100 µM (inactive)
[35]
  GI50: 45.7 µM (inactive)
[36]
  GI50: 99.5 µM (inactive)
[37]
  GI50: > 100 µM
[38]
  GI50: 83 µM (inactive)
[39]
  GI50: > 100 µM (inactive)
[40]
  GI50: > 100 µM (inactive)
[41]
  GI50: > 100 µM (inactive)
[42]
  GI50: 92 µM (inactive)
[43]
  GI50: > 100 µM (inactive)
[44]
  GI50: > 100 µM (inactive)
[45]
  GI50: > 100 µM (inactive)
[46]
  GI50: > 100 µM (inactive)
[47]
  GI50: 71.3 µM (inactive)
[48]
  GI50: > 100 µM (inactive)
[49]
  GI50: > 100 µM (inactive)
[50]
  GI50: > 100 µM (inactive)
[51]
  GI50: > 100 µM (inactive)
[52]
  GI50: > 100 µM (inactive)
[53]
  GI50: > 100 µM (inactive)
[54]
  GI50: > 100 µM (inactive)

## Cc1nc2c(ccc3ncccc32)[nH]1
[1]
  GI50: > 100 µM (inactive)
[2]
  GI50: > 100 µM (inactive)
[3]
  GI50: > 100 µM (inactive)
[4]
  GI50: > 100 µM (inactive)
[5]
  GI50: > 100 µM (inactive)
[6]
  GI50: > 100 µM (inactive)
[8]
  GI50: > 100 µM (inactive)
[9]
  GI50: > 100 µM (inactive)
[10]
  GI50: > 100 µM (inactive)
[11]
  GI50: > 100 µM (inactive)
[12]
  GI50: > 100 µM (inactive)
[13]
  GI50: > 100 µM (inactive)
[55]
  GI50: > 100 µM (inactive)
[56]
  GI50: > 100 µM (inactive)
[14]
  GI50: > 100 µM (inactive)
[15]
  GI50: > 100 µM (inactive)
[16]
  GI50: > 100 µM (inactive)
[17]
  GI50: > 100 µM (inactive)
[18]
  GI50: > 100 µM (inactive)
[19]
  GI50: > 100 µM (inactive)
[20]
  GI50: > 100 µM (inactive)
[21]
  GI50: > 100 µM (inactive)
[22]
  GI50: > 100 µM (inactive)
[23]
  GI50: > 100 µM (inactive)
[24]
  GI50: > 100 µM (inactive)
[25]
  GI50: > 100 µM (inactive)
[26]
  GI50: > 100 µM (inactive)
[27]
  GI50: > 100 µM (inactive)
[28]
  GI50: > 100 µM (inactive)
[29]
  GI50: > 100 µM (inactive)
[30]
  GI50: > 100 µM (inactive)
[31]
  GI50: > 100 µM (inactive)
[32]
  GI50: > 100 µM (inactive)
[57]
  GI50: > 100 µM (inactive)
[34]
  GI50: > 100 µM (inactive)
[35]
  GI50: > 100 µM (inactive)
[37]
  GI50: > 100 µM
[38]
  GI50: > 100 µM (inactive)
[39]
  GI50: > 100 µM (inactive)
[40]
  GI50: > 100 µM (inactive)
[41]
  GI50: > 100 µM (inactive)
[42]
  GI50: > 100 µM (inactive)
[43]
  GI50: > 100 µM (inactive)
[45]
  GI50: > 100 µM (inactive)
[46]
  GI50: > 100 µM (inactive)
[47]
  GI50: > 100 µM (inactive)
[48]
  GI50: > 100 µM (inactive)
[49]
  GI50: > 100 µM (inactive)
[50]
  GI50: > 100 µM (inactive)
[52]
  GI50: > 100 µM (inactive)
[53]
  GI50: > 100 µM (inactive)
[54]
  GI50: > 100 µM (inactive)
